Assay results: ChEMBL document CHEMBL1629414, “A neuroprotective sulfone of marine origin and the in vivo anti-inflammatory activity of an analogue” (Eur J Med Chem, 2010)
Active and inactive are the calls of the source. The rule behind the calls is not given here.

Key:
RAW264.7 [1] = assay: Antiinflammatory activity in mouse RAW264.7 cells assessed as inhibition of LPS-induced expression of iNOS at 10 uM treated 10 mins before LPS challenge measured after 16 hrs by Western blotting relative to control; type: functional; set-up: scale not given: the % may be the effect or the level left
RAW264.7 [2] = assay: Antiinflammatory activity in mouse RAW264.7 cells assessed as inhibition of LPS-induced expression of COX2 at 10 uM treated 10 mins before LPS challenge measured after 16 hrs by Western blotting relative to control; type: functional; set-up: scale not given: the % may be the effect or the level left
SH-SY5Y [3] = assay: Neuroprotective activity in human SH-SY5Y cells assessed as protection against 6-OHDA-induced cytotoxicity at 1 uM pretreated 1 hr before 6-OHDA challenge measured after 15 hrs by Alamar blue assay; type: functional, cell-based
RAW264.7 [4] = assay: Antiinflammatory activity in mouse RAW264.7 cells assessed as inhibition of LPS-induced expression of iNOS after treated 10 mins before LPS challenge measured after 16 hrs by Western blotting; type: functional, cell-based
RAW264.7 [5] = assay: Antiinflammatory activity in mouse RAW264.7 cells assessed as inhibition of LPS-induced expression of COX-2 treated 10 mins before LPS challenge measured after 16 hrs by Western blotting; type: functional, cell-based
RAW264.7 [6] = assay: Cytotoxicity against mouse RAW264.7 cells assessed as inhibition of beta-actin expression at 50 uM by Western blotting; type: cell-based; conditions: raw264.7, 50 µM
Rattus norvegicus [7] = assay: Antinociceptive activity in chronic constriction injury neuropathic pain Wistar rat model assessed as reduction of paw withdrawal latency at 0.1 to 5 ug, administered intrathecally after 20 mins; type: functional, organism-based
Rattus norvegicus [8] = assay: Antiatherosclerotic activity against balloon injury-induced angioplasty in Wistar rat assessed as inhibition of neointimal proliferation at 3 mg/kg/day, sc relative to control; type: functional; set-up: scale not given: the % may be the effect or the level left; conditions: route subcutaneous
Rattus norvegicus [9] = assay: Protection against encephalomyelitis-induced clinical signs in Lewis rat preimmunized with Freund's complete adjuvant at 30 ug/kg, administered intrathecally bid for 5 days from day 7 after immunization; type: functional, organism-based
Rattus norvegicus [10] = assay: Antinociceptive activity in chronic constriction injury neuropathic pain Wistar rat model assessed as reduction of paw withdrawal latency at 5 ug, administered intrathecally after 20 to 120 mins; type: functional, organism-based
Rattus norvegicus [11] = assay: Antinociceptive activity in intrathecally dosed chronic constriction injury neuropathic pain Wistar rat model assessed as reduction of paw withdrawal latency measured up to 120 mins; type: functional
Rattus norvegicus [12] = assay: Toxicity in chronic constriction injury neuropathic pain Wistar rat model assessed as effect on locomotor activity at 0.1 to 5 ug, administered intrathecally; type: organism-based; conditions: in vivo, icv_or_intrathecal
Rattus norvegicus [13] = assay: Toxicity in Lewis rat assessed as neurological deffects at 30 ug/kg, administered intrathecally bid for 5 days; type: organism-based; conditions: in vivo, icv_or_intrathecal, 0.03 mg/kg, 120 h
RAW264.7 [14] = assay: Cytotoxicity against mouse RAW264.7 cells assessed as inhibition of beta-actin expression at 30 uM by Western blotting; type: cell-based; conditions: raw264.7, 30 µM
[15] = Solubility of the compound in water; type: physicochemical
SH-SY5Y [16] = assay: Neuroprotective activity in human SH-SY5Y cells assessed as protection against 6-OHDA-induced cytotoxicity pretreated 1 hr before 6-OHDA challenge measured after 15 hrs by Alamar blue assay; type: functional

Q: For `CC(=O)CCSCCO`, which Activity (RAW264.7 [1]) is on record?
A: 59.5%

Q: And the Activity (RAW264.7 [2])?
A: 91.2%

Q: Which results are given for `CC(=O)CCS(=O)(=O)CCO`?
A: Activity (SH-SY5Y [3]): inactive; IC50 (RAW264.7 [4]): 3.6 µM; IC50 (RAW264.7 [5]): 32.1 µM; Activity (RAW264.7 [6]): Toxic; Activity (Rattus norvegicus [7]): Active; Activity (Rattus norvegicus [8]): 98.1%; Activity (Rattus norvegicus [9]): Active; Activity (Rattus norvegicus [10]): Active; ED50 (Rattus norvegicus [11]): 0.75 µg; Activity (Rattus norvegicus [12]): Non-toxic; Activity (Rattus norvegicus [13]): Non-toxic

Q: What does the source list for `C=CS(=O)(=O)CCC(C)=O` [AUSTRASULFONE]?
A: Activity (RAW264.7 [14]): Toxic; solubility [15]: > 50 mg/mL; Activity (SH-SY5Y [16]): Dose-dependent effect; EC50 (SH-SY5Y [16]; read-out: ED50 (the source's name)): 0.011 µM
